Test results from ChEMBL document CHEMBL5346924, “Optically activated MEK1/2 inhibitors (Opti-MEKi) as potential antimelanoma agents” (Eur J Med Chem, 2023).
Calls of active or inactive are those of the source. The rule behind the calls is not given here.

Key:
[1] = target: T1, Mitogen-activated protein kinase; ERK1/ERK2 (Homo sapiens, UniProt P27361+P28482); experiment: Inhibition of ERK1/2 phosphorylation in human A-375 cells preincubated with compound for 1 hrs followed by 365 nm light irradiation for 5 mins and measured after 1 hrs compound treatment by Western blot analysis; assay type: cell-based; settings: dose 1-100 nM, time 125.0 min
T1 sequence (P27361 whole entry, looked up): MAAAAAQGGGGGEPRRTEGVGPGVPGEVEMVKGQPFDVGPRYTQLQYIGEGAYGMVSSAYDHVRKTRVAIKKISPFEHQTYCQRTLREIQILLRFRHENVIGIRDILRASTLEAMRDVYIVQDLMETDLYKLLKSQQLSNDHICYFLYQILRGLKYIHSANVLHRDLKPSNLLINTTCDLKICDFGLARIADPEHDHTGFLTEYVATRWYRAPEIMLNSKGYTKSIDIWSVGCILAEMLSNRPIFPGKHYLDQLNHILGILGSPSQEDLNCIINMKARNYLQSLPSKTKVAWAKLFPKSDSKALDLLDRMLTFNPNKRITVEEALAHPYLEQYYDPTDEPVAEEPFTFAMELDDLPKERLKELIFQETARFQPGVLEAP
T1 sequence (P28482 whole entry, looked up): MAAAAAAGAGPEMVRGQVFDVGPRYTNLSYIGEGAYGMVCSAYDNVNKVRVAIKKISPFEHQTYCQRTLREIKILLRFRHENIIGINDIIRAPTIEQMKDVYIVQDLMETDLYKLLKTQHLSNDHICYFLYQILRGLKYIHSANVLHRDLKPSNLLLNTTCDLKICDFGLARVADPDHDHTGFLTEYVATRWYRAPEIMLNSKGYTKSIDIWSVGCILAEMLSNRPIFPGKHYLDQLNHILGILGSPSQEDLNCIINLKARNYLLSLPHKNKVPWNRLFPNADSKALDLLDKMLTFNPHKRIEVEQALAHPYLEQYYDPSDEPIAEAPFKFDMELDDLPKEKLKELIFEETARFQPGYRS

CYP2C9 = CYP2C9 (Homo sapiens, UniProt P11712); experiment: Inhibition of CYP2C9 in human microsomes at 10 uM in the presence of NADPH relative to control; assay type: ADME, Microsome
Chain of CYP2C9 (P11712 whole entry): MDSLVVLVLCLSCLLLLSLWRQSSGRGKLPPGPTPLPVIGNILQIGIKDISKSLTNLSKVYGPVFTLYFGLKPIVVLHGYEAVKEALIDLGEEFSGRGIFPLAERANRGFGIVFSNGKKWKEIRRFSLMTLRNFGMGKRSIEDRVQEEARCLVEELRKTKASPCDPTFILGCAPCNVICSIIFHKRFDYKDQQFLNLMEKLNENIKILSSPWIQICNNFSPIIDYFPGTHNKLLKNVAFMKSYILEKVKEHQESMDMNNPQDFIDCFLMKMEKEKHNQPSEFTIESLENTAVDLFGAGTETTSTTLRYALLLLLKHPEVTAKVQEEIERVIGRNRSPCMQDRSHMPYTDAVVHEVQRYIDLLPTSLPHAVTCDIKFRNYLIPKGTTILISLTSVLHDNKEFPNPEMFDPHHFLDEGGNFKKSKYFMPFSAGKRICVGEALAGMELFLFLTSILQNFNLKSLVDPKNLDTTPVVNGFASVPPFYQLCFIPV

[2] = target: T2, Dual specificity mitogen-activated protein kinase kinase 1 (Homo sapiens, UniProt Q02750); experiment: Inhibition of MEK1 (unknown origin) incubated for 1 hrs in the presence of ATP by FRET-based Z'-Lyte assay
T2 sequence (Q02750 whole entry): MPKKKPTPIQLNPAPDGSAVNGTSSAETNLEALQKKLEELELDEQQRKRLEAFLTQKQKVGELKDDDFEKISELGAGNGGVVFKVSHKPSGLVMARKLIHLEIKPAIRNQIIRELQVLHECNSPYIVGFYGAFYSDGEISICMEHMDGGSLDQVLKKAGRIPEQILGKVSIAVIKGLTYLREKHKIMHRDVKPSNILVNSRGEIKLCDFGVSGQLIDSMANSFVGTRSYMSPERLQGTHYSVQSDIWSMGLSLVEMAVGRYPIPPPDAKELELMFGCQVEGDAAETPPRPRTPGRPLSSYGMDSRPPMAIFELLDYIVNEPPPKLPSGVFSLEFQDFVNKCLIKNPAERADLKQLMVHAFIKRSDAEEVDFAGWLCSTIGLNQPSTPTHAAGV

[3] = target: RAC-alpha serine/threonine-protein kinase (Homo sapiens) (UniProt P31749); experiment: Inhibition of recombinant human AKT1 at 1 uM
[4] = target: T1, Mitogen-activated protein kinase; ERK1/ERK2; experiment: Inhibition of ERK1/2 phosphorylation in human A-375 cells upto 10 uM incubated for 1 hrs in the absence of UV irradiation by Western blot analysis; assay type: cell-based
CYP2C19 = CYP2C19 (Homo sapiens, UniProt P33261); experiment: Inhibition of CYP2C19 in human microsomes at 10 uM in the presence of NADPH relative to control; assay type: ADME, Microsome
Chain of CYP2C19 (P33261 whole entry): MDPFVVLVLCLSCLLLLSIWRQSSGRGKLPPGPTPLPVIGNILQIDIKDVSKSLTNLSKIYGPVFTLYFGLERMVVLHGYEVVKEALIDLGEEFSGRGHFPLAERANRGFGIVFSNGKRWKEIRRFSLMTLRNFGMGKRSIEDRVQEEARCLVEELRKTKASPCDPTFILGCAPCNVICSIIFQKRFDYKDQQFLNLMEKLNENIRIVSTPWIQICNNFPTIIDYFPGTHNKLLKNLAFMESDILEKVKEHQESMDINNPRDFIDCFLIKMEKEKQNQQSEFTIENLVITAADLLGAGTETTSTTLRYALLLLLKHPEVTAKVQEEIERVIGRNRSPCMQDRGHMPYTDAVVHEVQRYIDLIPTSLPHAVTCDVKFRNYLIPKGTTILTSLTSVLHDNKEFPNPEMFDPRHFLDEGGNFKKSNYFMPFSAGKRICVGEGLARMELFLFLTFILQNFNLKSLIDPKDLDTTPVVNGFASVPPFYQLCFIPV

A-375 [5] = experiment: Inhibition of colony formation in human A-375 cells at 10 to 300 nM incubated for 10 days by crystal violet staining based analysis; assay type: functional, cell-based; settings: dose 10-300 nM, time 10.0 day
[6] = target: T2, Dual specificity mitogen-activated protein kinase kinase 1; experiment: Inhibition of recombinant human MEK1 at 1 uM
A-375 [7] = experiment: Antiproliferative activity against human A-375 cells harboring BRAF V600E mutant assessed as cell growth inhibition preincubated with compound for 1 hrs followed by UV irradiation for 1 min and measured 72 hrs post compound treatment by CellTiter-Glo luminescent assay; assay type: functional; settings: A-375, light or radiation study
A-375 [8] = experiment: Antiproliferative activity against human A-375 cells harboring BRAF V600E mutant assessed as cell growth inhibition preincubated with compound for 1 hrs followed by UV irradiation for 3 mins and measured 72 hrs post compound treatment by CellTiter-Glo luminescent assay; assay type: functional; settings: A-375, light or radiation study
[9] = target: Fibroblast growth factor receptor 1 (Homo sapiens) (UniProt P11362); experiment: Inhibition of recombinant human FGFR1 at 1 uM
Chain of Fibroblast growth factor receptor 1 (Homo sapiens) (P11362 22-822 limits assumed): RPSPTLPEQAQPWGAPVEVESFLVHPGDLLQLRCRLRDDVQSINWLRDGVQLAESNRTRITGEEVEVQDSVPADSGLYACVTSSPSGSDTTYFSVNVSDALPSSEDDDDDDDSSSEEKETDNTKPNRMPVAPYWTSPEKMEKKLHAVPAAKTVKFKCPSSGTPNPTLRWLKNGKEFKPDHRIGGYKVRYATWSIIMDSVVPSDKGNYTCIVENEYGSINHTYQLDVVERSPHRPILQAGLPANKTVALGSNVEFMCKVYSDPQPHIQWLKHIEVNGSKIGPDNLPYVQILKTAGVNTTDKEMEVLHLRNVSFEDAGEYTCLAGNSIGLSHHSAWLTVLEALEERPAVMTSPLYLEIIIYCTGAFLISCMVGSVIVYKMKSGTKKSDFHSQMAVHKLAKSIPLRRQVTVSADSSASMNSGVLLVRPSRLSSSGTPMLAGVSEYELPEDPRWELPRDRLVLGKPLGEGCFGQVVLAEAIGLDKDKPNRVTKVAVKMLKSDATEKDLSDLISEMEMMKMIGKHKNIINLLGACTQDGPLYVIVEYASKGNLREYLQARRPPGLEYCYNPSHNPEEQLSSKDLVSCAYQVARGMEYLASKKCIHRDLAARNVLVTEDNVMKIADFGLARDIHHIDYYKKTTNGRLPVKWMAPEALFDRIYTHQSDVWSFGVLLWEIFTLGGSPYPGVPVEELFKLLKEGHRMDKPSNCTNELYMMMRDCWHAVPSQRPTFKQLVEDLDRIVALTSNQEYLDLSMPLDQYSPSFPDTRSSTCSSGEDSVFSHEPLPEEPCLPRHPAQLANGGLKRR

[10] = Photoactivation of the compound assessed as fold change in caging efficiency
A549 [11] = experiment: Antiproliferative activity against human A549 cells harboring KRas […] mutant assessed as cell growth inhibition preincubated with compound for 1 hrs followed by UV irradiation for 5 mins and measured 72 hrs post compound treatment by CellTiter-Glo luminescent assay; assay type: functional; settings: A549, light or radiation study
[12] = Photoactivation of the compound assessed as photocleavage in the presence of 365 nm UV irradiation by HPLC based LC-MS analysis
[13] = Metabolic stability in human liver microsomes assessed as half-life in the presence of NADPH regenerating system; assay type: ADME, Microsome
CYP3A4 = CYP3A4 (Homo sapiens, UniProt P08684); experiment: Inhibition of CYP3A4 in human microsomes at 10 uM in the presence of NADPH relative to control; assay type: ADME, Microsome
A-375 [14] = experiment: Inhibition of MEK/ERK/RSK signaling in human A-375 cells at 5 nM in the absence of light irradiation by Western blot analysis; assay type: cell-based
[15] = target: Ribosomal protein S6 kinase alpha-1 (Homo sapiens) (UniProt Q15418); experiment: Inhibition of recombinant human RSK1 at 1 uM
[16] = target: Epidermal growth factor receptor (Homo sapiens) (UniProt P00533); experiment: Inhibition of recombinant human EGFR at 1 uM
Homo sapiens = species on record: Homo sapiens; experiment: Inhibition of recombinant human PI3K at 1 uM
CYP2D6 = CYP2D6 (Homo sapiens, UniProt P10635); experiment: Inhibition of CYP2D6 in human microsomes at 10 uM in the presence of NADPH relative to control; assay type: ADME, Microsome
Chain of CYP2D6 (P10635 whole entry): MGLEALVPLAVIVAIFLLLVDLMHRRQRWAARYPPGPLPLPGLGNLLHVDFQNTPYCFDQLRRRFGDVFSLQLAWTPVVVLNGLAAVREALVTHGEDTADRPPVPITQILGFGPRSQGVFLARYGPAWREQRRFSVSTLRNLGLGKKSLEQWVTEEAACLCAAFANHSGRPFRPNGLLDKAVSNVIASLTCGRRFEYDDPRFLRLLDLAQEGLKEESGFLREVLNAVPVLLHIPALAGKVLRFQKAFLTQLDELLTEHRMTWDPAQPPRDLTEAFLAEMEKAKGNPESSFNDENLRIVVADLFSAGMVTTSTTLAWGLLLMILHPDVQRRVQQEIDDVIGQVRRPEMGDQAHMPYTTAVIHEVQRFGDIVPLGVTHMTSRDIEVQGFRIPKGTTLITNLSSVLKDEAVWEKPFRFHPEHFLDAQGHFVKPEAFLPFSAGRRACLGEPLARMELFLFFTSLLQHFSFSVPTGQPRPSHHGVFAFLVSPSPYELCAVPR

[17] = Photoactivation of the compound assessed as photocleavage by measuring decay half-life in the presence of 365 nm UV irradiation by HPLC based LC-MS analysis
A-375 [18] = experiment: Antiproliferative activity against CM-Dil labelled human A-375 cells xenografted in Zebra fish AB assessed as suppression of tumor growth by measuring red fluorescence preincubated with compound followed by 365 nm light irradiation for 5 mins and measured after 48 hrs by fluorescence based analysis; assay type: functional, cell-based; settings: dose 45-90 pM
[19] = Metabolic stability in human liver microsomes assessed as parent compound remaining measured after 1 hrs in the absence of NADPH regenerating system; assay type: ADME, Microsome; settings: read-out: Stability
A549 [20] = experiment: Antiproliferative activity against human A549 cells harboring KRAS […] mutant assessed as cell growth inhibition incubated for 72 hrs in the absence of UV irradiation by CellTiter-Glo luminescent assay; assay type: functional; settings: A549, light or radiation study
[21] = Metabolic stability in human liver microsomes assessed as parent compound remaining measured after 1 hrs in the presence of NADPH regenerating system; assay type: ADME, Microsome; settings: read-out: Stability
[22] = target: Serine/threonine-protein kinase B-raf (Homo sapiens) (UniProt P15056); experiment: Inhibition of recombinant human BRAF at 1 uM
Chain of Serine/threonine-protein kinase B-raf (Homo sapiens) (P15056 whole entry): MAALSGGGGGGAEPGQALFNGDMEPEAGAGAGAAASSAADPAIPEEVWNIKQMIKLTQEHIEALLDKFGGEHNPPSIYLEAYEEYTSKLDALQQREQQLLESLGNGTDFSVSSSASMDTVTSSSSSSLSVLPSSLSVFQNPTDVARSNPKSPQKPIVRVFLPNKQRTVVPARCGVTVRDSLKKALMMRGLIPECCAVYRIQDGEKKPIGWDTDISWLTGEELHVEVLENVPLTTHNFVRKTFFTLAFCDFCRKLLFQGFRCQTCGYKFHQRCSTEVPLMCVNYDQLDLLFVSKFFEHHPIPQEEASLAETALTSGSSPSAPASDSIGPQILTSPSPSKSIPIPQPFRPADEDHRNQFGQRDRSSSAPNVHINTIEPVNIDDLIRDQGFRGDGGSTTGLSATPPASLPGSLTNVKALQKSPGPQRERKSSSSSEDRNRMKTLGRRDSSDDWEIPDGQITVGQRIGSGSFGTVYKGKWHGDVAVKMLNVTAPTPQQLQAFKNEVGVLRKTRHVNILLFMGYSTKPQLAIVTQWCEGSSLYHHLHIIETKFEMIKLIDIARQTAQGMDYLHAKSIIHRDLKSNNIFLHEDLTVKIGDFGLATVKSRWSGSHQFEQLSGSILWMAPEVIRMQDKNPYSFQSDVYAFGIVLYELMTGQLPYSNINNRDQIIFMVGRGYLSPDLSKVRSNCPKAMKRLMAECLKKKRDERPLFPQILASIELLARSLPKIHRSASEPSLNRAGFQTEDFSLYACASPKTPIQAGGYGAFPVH

HCT-116 = experiment: Antiproliferative activity against human HCT-116 cells harboring KRAS G13D mutant assessed as cell growth inhibition preincubated with compound for 1 hrs followed by UV irradiation for 5 mins and measured 72 hrs post compound treatment by CellTiter-Glo luminescent assay; assay type: functional; settings: HCT-116, light or radiation study
A-375 [23] = experiment: Inhibition of MEK/ERK/RSK signaling in human A-375 cells assessed as inhibition of ERK phosphorylation at 5 nM in the presence of 365 nm light irradiation for 30 sec to 5 min by Western blot analysis; assay type: cell-based
[24] = Selectivity ratio of GI50 for antiproliferative activity against human A-375 cells harboring BRAF V600E mutant in the absence of UV irradiation to GI50 for antiproliferative activity against human A-375 cells harboring BRAF V600E mutant in the presence of UV irradiation for 5 mins; assay type: functional
A-375 [25] = experiment: Antiproliferative activity against human A-375 cells harboring BRAF V600E mutant assessed as cell growth inhibition preincubated with compound for 1 hrs followed by UV irradiation for 5 mins and measured 72 hrs post compound treatment by CellTiter-Glo luminescent assay; assay type: functional; settings: A-375, light or radiation study
[26] = target: Mitogen-activated protein kinase 3 (Homo sapiens) (UniProt P27361); experiment: Inhibition of recombinant human ERK1 at 1 uM
Chain of Mitogen-activated protein kinase 3 (Homo sapiens) (P27361 whole entry): as the sequence (P27361 whole entry, looked up) above

A-375 [27] = experiment: Antiproliferative activity against human A-375 cells harboring BRAF V600E mutant assessed as cell growth inhibition incubated for 72 hrs in the absence of UV irradiation by CellTiter-Glo luminescent assay; assay type: functional; settings: A-375, light or radiation study
[28] = test system: Serine/threonine-protein kinase B-raf (Homo sapiens), P15056 [V600E]; experiment: Inhibition of recombinant human BRAF V600E mutant at 1 uM
Chain of Serine/threonine-protein kinase B-raf (Homo sapiens), P15056 [V600E] (P15056 whole entry V600E): as the sequence (P15056 whole entry) above, with V600E counted along it

[29] = target: Dual specificity mitogen-activated protein kinase kinase 2 (Homo sapiens) (UniProt P36507); experiment: Inhibition of recombinant human MEK2 at 1 uM
Chain of Dual specificity mitogen-activated protein kinase kinase 2 (Homo sapiens) (P36507 whole entry): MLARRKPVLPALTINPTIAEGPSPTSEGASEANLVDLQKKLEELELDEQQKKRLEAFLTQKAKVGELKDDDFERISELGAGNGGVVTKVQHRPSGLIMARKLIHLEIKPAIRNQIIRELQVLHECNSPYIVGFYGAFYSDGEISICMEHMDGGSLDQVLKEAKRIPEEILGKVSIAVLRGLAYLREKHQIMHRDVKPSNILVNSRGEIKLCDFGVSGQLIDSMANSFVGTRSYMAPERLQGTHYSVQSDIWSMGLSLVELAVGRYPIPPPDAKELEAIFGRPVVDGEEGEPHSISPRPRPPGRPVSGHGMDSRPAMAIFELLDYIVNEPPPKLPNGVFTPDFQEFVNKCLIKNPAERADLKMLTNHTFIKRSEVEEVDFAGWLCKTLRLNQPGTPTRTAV

[30] = Stability in human blood plasma assessed as half-life; assay type: ADME, cell-free
[31] = Metabolic stability in human liver microsomes assessed as intrinsic clearance in the presence of NADPH regenerating system; assay type: ADME, Microsome; settings: read-out: CLH

inhibition [1]: Dose-Dependent Effect | inhibition at 10 µM (CYP2C9): 63.3% | IC50 [2]: > 30000 nM | inhibition [3]: inactive | inhibition [4]: inactive | inhibition at 10 µM (CYP2C19): 44.6% | inhibition [6]: inactive | GI50 (A-375 [7]): 6.29 nM | GI50 (A-375 [8]): 2.95 nM | inhibition [9]: inactive | fold change (FC) [10]: > 5085 | GI50 (A549 [11]): 27.8 nM | Drug metabolism [12]: Metabolite_Detected | half-life [13]: 24.2 min | inhibition at 10 µM (CYP3A4): 92.4% | inhibition [15]: inactive | inhibition [16]: inactive | inhibition (Homo sapiens): inactive | inhibition at 10 µM (CYP2D6): 21.5% | half-life [17]: 1.41 min | remaining at 1 h [19]: 84.5% | GI50 (A549 [20]): > 10000 nM | remaining at 1 h [21]: 13.6% | inhibition [22]: inactive | GI50 (HCT-116): 60 nM | GI50 (A-375 [25]): 2.13 nM | inhibition [26]: inactive | GI50 (A-375 [27]): 12700 nM | inhibition [28]: inactive | inhibition [29]: inactive | half-life [30]: > 289 min | CLint scaled [31]: 51.4 mL/min/kg
SMILES: COc1cc(C(C)O/C(=N\OC[C@H](O)CO)c2ccc(F)c(F)c2Nc2ccc(I)cc2F)c([N+](=O)[O-])cc1OC (some centres not stated)
inhibition (A-375 [5]): inactive | inhibition (A-375 [14]): inactive | Activity (A-375 [18]): Dose-Dependent Effect | inhibition (A-375 [23]): Active | RatioGI50 [24]: >5000
